Experimental data reported in ChEMBL document CHEMBL1221208, “ATP-competitive inhibitors of the mitotic kinesin KSP that function via an allosteric mechanism” (Nat Chem Biol, 2007).
The source made the active and inactive calls. No cut-off for these calls is given here.

Assays:
[1] = biological target: Kinesin-like protein KIF11 (Homo sapiens, UniProt P52732, A133D); assay: Inhibition of human KSP A133D mutant using varying ATP levels in presence of saturating levels of microtubule by Lineweaver-Burke plot
Sequence of Kinesin-like protein KIF11 (Homo sapiens, UniProt P52732, A133D) (P52732 whole entry A133D): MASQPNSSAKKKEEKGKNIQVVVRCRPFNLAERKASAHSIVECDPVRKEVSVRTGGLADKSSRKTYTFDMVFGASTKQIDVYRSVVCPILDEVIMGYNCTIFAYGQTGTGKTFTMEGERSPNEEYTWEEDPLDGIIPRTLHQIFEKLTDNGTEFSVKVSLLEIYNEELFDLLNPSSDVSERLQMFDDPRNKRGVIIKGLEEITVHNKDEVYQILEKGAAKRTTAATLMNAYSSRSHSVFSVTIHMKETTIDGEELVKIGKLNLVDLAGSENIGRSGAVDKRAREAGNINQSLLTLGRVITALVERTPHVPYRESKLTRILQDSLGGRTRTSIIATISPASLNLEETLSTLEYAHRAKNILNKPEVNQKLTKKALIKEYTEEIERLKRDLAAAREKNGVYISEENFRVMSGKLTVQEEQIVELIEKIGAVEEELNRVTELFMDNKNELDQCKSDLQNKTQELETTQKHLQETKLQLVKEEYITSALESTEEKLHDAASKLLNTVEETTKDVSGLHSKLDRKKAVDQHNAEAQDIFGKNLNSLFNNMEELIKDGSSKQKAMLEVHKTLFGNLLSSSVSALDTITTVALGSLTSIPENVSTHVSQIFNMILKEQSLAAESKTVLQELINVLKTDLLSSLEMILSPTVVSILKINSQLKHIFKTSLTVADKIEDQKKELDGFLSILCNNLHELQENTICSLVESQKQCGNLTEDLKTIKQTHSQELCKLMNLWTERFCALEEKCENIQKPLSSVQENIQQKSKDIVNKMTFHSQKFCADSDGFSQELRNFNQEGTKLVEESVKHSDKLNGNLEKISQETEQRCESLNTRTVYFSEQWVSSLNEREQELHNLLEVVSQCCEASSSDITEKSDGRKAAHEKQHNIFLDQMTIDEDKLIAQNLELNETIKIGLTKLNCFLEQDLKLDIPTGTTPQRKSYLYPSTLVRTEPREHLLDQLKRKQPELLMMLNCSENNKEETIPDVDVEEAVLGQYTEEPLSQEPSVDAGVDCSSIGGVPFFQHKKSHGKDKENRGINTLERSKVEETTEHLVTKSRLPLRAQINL

[2] = test system: T1, Kinesin-like protein KIF11 (Homo sapiens), P52732 [D130V]; assay: Uncompetitive inhibition of human KSP D130V mutant with respect to microtubule using varying ATP levels in presence of saturating levels of microtubule by Lineweaver-Burke plot
T1 sequence (whole entry): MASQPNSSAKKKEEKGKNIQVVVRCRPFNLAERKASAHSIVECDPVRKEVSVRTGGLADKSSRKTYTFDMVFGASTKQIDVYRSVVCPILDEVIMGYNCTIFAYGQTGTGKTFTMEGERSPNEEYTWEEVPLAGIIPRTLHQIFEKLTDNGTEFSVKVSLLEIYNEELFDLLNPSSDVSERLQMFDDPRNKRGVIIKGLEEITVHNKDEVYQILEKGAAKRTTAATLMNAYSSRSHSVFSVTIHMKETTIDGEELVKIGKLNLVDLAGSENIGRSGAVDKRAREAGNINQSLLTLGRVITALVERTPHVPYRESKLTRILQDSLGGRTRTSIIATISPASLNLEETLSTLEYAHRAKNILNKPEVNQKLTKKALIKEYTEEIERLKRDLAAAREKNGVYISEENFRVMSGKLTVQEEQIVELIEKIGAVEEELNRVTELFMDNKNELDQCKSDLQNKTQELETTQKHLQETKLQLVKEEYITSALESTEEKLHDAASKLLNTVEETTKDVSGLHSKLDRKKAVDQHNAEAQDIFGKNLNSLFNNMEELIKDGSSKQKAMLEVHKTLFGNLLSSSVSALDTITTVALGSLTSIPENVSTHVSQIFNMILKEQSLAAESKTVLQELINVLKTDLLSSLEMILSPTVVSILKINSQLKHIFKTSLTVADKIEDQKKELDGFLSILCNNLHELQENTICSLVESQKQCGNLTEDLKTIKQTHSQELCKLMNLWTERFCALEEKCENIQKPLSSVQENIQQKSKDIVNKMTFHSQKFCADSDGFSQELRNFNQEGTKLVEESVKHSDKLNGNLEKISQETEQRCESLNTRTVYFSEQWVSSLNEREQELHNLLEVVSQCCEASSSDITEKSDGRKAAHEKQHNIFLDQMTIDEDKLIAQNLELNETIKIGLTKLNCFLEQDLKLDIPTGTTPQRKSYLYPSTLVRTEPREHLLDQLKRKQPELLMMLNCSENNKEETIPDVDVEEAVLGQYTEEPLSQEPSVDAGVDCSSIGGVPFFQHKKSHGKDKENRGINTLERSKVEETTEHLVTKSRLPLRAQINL

HCT-116 [3] = assay: Antiproliferative activity against human HCT116 cells after 72 hrs by Cell titer Glo assay; type: functional, cell-based; settings: HCT-116, 72 h
HCT-116 [4] = assay: Antiproliferative activity against human HCT116 cells expressing Kinesin-like protein KIF11 D130V mutant after 72 hrs by Cell titer Glo assay; type: functional, cell-based; settings: HCT-116, 72 h
SK-OV-3 = assay: Induction of monopolar spindle formation in human SKOV3 cells; type: functional, cell-based
HCT-116 [5] = assay: Induction of monopolar spindle formation in human HCT116 cells; type: functional, cell-based
HCT-116 [6] = assay: Antiproliferative activity against IC50 biaryl selected drug-resistant against human HCT116 cells after 72 hrs by Cell titer Glo assay; type: functional, cell-based; settings: HCT-116, 72 h
HCT-116 [7] = assay: Antiproliferative activity against IC95 biaryl selected drug-resistant against human HCT116 cells after 72 hrs by Cell titer Glo assay; type: functional, cell-based; settings: HCT-116, 72 h
HCT-116 [8] = assay: Antiproliferative activity against 3x IC95 biaryl selected drug-resistant against human HCT116 cells after 72 hrs by Cell titer Glo assay; type: functional, cell-based; settings: HCT-116, 72 h
HCT-116 [9] = assay: Antiproliferative activity against IC50 biaryl selected human HCT116 cells expressing Kinesin-like protein KIF11 D130V mutant after 72 hrs by Cell titer Glo assay; type: functional, cell-based; settings: HCT-116, 72 h
HCT-116 [10] = assay: Antiproliferative activity against IC95 biaryl selected human HCT116 cells expressing Kinesin-like protein KIF11 D130V mutant after 72 hrs by Cell titer Glo assay; type: functional, cell-based; settings: HCT-116, 72 h
HCT-116 [11] = assay: Antiproliferative activity against 3x IC95 biaryl selected human HCT116 cells expressing Kinesin-like protein KIF11 D130V mutant after 72 hrs by Cell titer Glo assay; type: functional, cell-based; settings: HCT-116, 72 h
[12] = Inhibition of KSP A356 mutant in 3x IC95 biaryl selected human HCT116 cells using varying ATP levels in presence of saturating levels of microtubule by Lineweaver-Burke plot; type: cell-based; settings: hct-116
[13] = biological target: Kinesin-like protein KIF11 (Homo sapiens, UniProt P52732, I299F); assay: Inhibition of human KSP I299F mutant in 6x IC95 biaryl selected human HCT116 cells using varying ATP levels in presence of saturating levels of microtubule by Lineweaver-Burke plot; type: cell-based, HCT-116
Sequence of Kinesin-like protein KIF11 (Homo sapiens, UniProt P52732, I299F) (P52732 whole entry I299F): as the sequence (P52732 whole entry A133D) above, with D133A, I299F counted along it

Row | Compound | Ki [1] | inhibition [2] | IC50 (HCT-116 [3]) | IC50 (HCT-116 [4]) | Activity (SK-OV-3) | Activity (HCT-116 [5]) | IC50 (HCT-116 [6]) | IC50 (HCT-116 [7]) | IC50 (HCT-116 [8]) | IC50 (HCT-116 [9]) | IC50 (HCT-116 [10]) | IC50 (HCT-116 [11]) | Ki [12] | Ki [13]
1 | NC(=O)Nc1ccc(-c2ccc(C(F)(F)F)cc2)cc1F | 6.8 nM | Active | – | – | – | – | – | – | – | – | – | – | – | –
2 | O=C1CCc2cc(-c3ccc(C(F)(F)F)cc3)ccc2N1 | 1.4 nM | Active | 36 nM | 0.45 nM | Active | Active | 36 nM | 162 nM | 2090 nM | 0.83 nM | 3.3 nM | 6.9 nM | 109 nM | 66 nM
